ChEMBL document CHEMBL4483862, “Open-source discovery of chemical leads for next-generation chemoprotective antimalarials” (2018)

Tested on: Plasmodium berghei
Assay: Luciferase/luciferin-expressing antifolate-resistant parasites were used to infect a culture of HepG2 cells that were pre-incubated with compounds. Infected hepatocytes emit light due to the luciferase reaction. Assay results are presented as the percent inhibition of light emission compared to control. […]
Format: functional
Settings: sporozoite; for IC90: read-out: LUCIFERASE INFECTION ASSAY - IC90
[1] = read-out: LUCIFERASE INFECTION ASSAY - IC50

Compound Nc1ccc(NC2=C(Cl)C(=O)c3ccccc3C2=O)cc1 has an IC50 (FFLUC_HILL_SLOPE 16.7, FFLUC_R_SQUARED 0.273, HEPG2TOX_HILL_SLOPE 2.85, HEPG2TOX_R_SQUARED 0.992, PBLUC_HILL_SLOPE 8.6, PBLUC_R_SQUARED 0.505, read-out: LUCIFERASE INFECTION ASSAY - IC50) of 4.48 µM and an IC90 of 5.78 µM.

Work on Cn1c(C=C2NC(c3cnccn3)=NO2)n[nH]c1=S yielded an IC50 (PBLUC_HILL_SLOPE 0.666, PBLUC_R_SQUARED 0.147, read-out: LUCIFERASE INFECTION ASSAY - IC50) of over 12 µM and an IC90 of over 12 µM.

Work on O=C(Nc1ccc(Cl)cc1)O/N=C\c1ccc(C#Cc2ccccc2)cc1 yielded an IC50 [1] of over 8.8 µM and an IC90 of over 8.8 µM.

With CN(C)c1ccc(NC(=O)C2(C)CCCCN2C)cc1 (configuration not stated) the IC50 (PBLUC_HILL_SLOPE 1.77, PBLUC_R_SQUARED 0.752, read-out: LUCIFERASE INFECTION ASSAY - IC50) was 6.68 µM and the IC90 was over 12 µM.

For CCCCC1(COC(=O)c2ccc(C(C)(C)C)cc2)C(=O)N(c2ccccc2)N(c2ccccc2)C1=O, the IC50 (PBLUC_HILL_SLOPE 2.41, PBLUC_R_SQUARED 0.52, read-out: LUCIFERASE INFECTION ASSAY - IC50) was 4.52 µM and the IC90 was over 6.62 µM.

O=c1c(Cl)c(Cl)cnn1-c1c(Cl)cc(C(F)(F)F)cc1Cl gave an IC50 (FFLUC_HILL_SLOPE 19, FFLUC_R_SQUARED 0.471, HEPG2TOX_HILL_SLOPE 2.99, HEPG2TOX_R_SQUARED 0.99, PBLUC_HILL_SLOPE 1.54, PBLUC_R_SQUARED 0.797, read-out: LUCIFERASE INFECTION ASSAY - IC50) of 0.388 µM and an IC90 of 1.61 µM.

CN(C)c1ccc(C(c2ccc(N(C)C)cc2)c2ccc(Cl)c(Cl)c2)cc1 showed an IC50 (PBLUC_HILL_SLOPE 0.805, PBLUC_R_SQUARED 0.379, read-out: LUCIFERASE INFECTION ASSAY - IC50) of 3.91 µM and an IC90 of over 8.26 µM.

For CCc1ccc(-c2nc(Cn3cnc4ccccc4c3=O)cs2)cc1, the IC50 [1] was over 10 µM and the IC90 was over 10 µM.

In the case of O=C(CCc1nc2ccccc2s1)N(Cc1ccccc1F)C1CC1, the IC50 [1] is reported as over 10 µM and the IC90 is reported as over 10 µM.

O=C(/C=C/c1ccco1)Nc1ccc(Cl)cc1Cl showed an IC50 [1] of 9.77 µM and an IC90 of 11.1 µM.

CCOC(=O)/C(=C\c1ccc(Cl)c([N+](=O)[O-])c1)C1=Nn2c(nnc2-c2cccs2)SC1 gave an IC50 [1] of over 10 µM and an IC90 of over 10 µM.

For COc1ccc(NC(=O)C(c2ccccc2)N2CCN(C)CC2)cc1Cl (configuration not stated), the IC50 [1] was over 10 µM and the IC90 was over 10 µM.

O=C(/C=C/c1cn(Cc2ccccc2)nc1-c1ccccc1)N1CCN(c2ccncc2)CC1 showed an IC50 (PBLUC_HILL_SLOPE 2.17, PBLUC_R_SQUARED 0.608, read-out: LUCIFERASE INFECTION ASSAY - IC50) of 2.22 µM and an IC90 of 6.13 µM.

c1ccc(-c2ccnc3c2ccc2c(-c4ccccc4)ccnc23)cc1 gave an IC50 (HEPG2TOX_HILL_SLOPE 2.07, HEPG2TOX_R_SQUARED 0.947, PBLUC_HILL_SLOPE 9.72, PBLUC_R_SQUARED 0.861, read-out: LUCIFERASE INFECTION ASSAY - IC50) of 1.39 µM and an IC90 of 1.74 µM.

Clc1nc(-c2ccccn2)nc2scc(-c3ccccc3)c12 showed an IC50 (HEPG2TOX_HILL_SLOPE 0.933, HEPG2TOX_R_SQUARED 0.89, PBLUC_HILL_SLOPE 8.14, PBLUC_R_SQUARED 0.197, read-out: LUCIFERASE INFECTION ASSAY - IC50) of 1.28 µM and an IC90 of 1.68 µM.

With Cc1ccc(/C=C2\CCc3c2nc2ccccc2c3C(=O)OCC#N)cc1 the IC50 (HEPG2TOX_HILL_SLOPE 0.309, HEPG2TOX_R_SQUARED 0.18, PBLUC_HILL_SLOPE 16.5, PBLUC_R_SQUARED 0.242, read-out: LUCIFERASE INFECTION ASSAY - IC50) was 0.0129 µM and the IC90 was 0.0147 µM.

In the case of Cc1cccc(C)c1NC(=S)NC1CC(C)CC(C)(C)C1 (configuration not stated), the IC50 (HEPG2TOX_HILL_SLOPE 2.42, HEPG2TOX_R_SQUARED 0.462, PBLUC_HILL_SLOPE 8.54, PBLUC_R_SQUARED 0.744, read-out: LUCIFERASE INFECTION ASSAY - IC50) is reported as 4.25 µM and the IC90 is reported as 5.5 µM.

Compound O=C(COc1ccc(C23CC4CC(CC(C4)C2)C3)cc1)N1CCCC1 has an IC50 (PBLUC_HILL_SLOPE 2.17, PBLUC_R_SQUARED 0.715, read-out: LUCIFERASE INFECTION ASSAY - IC50) of 1 µM and an IC90 of 2.75 µM.

Compound CCN(CC)c1ccc(NC(=O)c2cccc(F)c2)cc1 has an IC50 (HEPG2TOX_HILL_SLOPE 2.87, HEPG2TOX_R_SQUARED 0.815, PBLUC_HILL_SLOPE 5.54, PBLUC_R_SQUARED 0.522, read-out: LUCIFERASE INFECTION ASSAY - IC50) of 4.33 µM and an IC90 of 6.44 µM.

COC(=O)c1c(C)[nH]c(C(=O)Nc2ccc(C)cn2)c1C showed an IC50 (FFLUC_HILL_SLOPE 0.774, FFLUC_R_SQUARED 0.984, PBLUC_HILL_SLOPE 0.487, PBLUC_R_SQUARED 0.641, read-out: LUCIFERASE INFECTION ASSAY - IC50) of 0.0288 µM and an IC90 of 2.63 µM.

c1ccc2cc(-c3cnc4sc(NCc5ccncc5)nn34)ccc2c1 was tested, and the IC50 [1] was over 9.23 µM and the IC90 was over 9.23 µM.

In the case of O=S(=O)(Oc1ccc(Cl)cc1)c1cc(S(=O)(=O)c2ccccc2)cs1, the IC50 [1] is reported as over 7.95 µM and the IC90 is reported as over 7.95 µM.

CCCNC(=O)C1(C)CCN(Cc2ccc3ccccc3c2Br)C1 (configuration not stated) showed an IC50 (PBLUC_HILL_SLOPE 5.63, PBLUC_R_SQUARED 0.42, read-out: LUCIFERASE INFECTION ASSAY - IC50) of 5.79 µM and an IC90 of over 8.48 µM.

Cc1cc(CN(C)CC(=O)Nc2sc3c(c2C(=O)Nc2ccc(Cl)cc2)CCCC3)no1 showed an IC50 (FFLUC_HILL_SLOPE 4.26, FFLUC_R_SQUARED 0.612, PBLUC_HILL_SLOPE 24.8, PBLUC_R_SQUARED 0.242, read-out: LUCIFERASE INFECTION ASSAY - IC50) of 9.19 µM and an IC90 of over 10 µM.

For CSc1nc2ccccc2c(=O)n1-c1c(C)cccc1C, the IC50 (PBLUC_HILL_SLOPE 11.2, PBLUC_R_SQUARED 0.357, read-out: LUCIFERASE INFECTION ASSAY - IC50) was 10.5 µM and the IC90 was over 11.1 µM.

With O=S(=O)(Nc1ccc(OC(F)(F)F)cc1)c1ccc(S(=O)(=O)c2ncc(C(F)(F)F)cc2Cl)s1 the IC50 (FFLUC_HILL_SLOPE 4.61, FFLUC_R_SQUARED 0.168, read-out: LUCIFERASE INFECTION ASSAY - IC50) was over 5.82 µM and the IC90 was over 5.82 µM.

Compound C=CCN(C(=O)c1sc2nc3n(c(=O)c2c1C)CCCCC3)c1nc2c(s1)CCCC2 has an IC50 (PBLUC_HILL_SLOPE 1.42, PBLUC_R_SQUARED 0.275, read-out: LUCIFERASE INFECTION ASSAY - IC50) of over 10 µM and an IC90 of over 10 µM.

CCCCC(=O)OCC(=O)Nc1nc(-c2ccc(C)cc2O)cs1 was tested, and the IC50 [1] was over 10 µM and the IC90 was over 10 µM.

For CCOC(=O)c1c(-c2ccccc2)csc1NC(=O)Cn1ncc(Cl)c(Cl)c1=O, the IC50 [1] was 3.35 µM and the IC90 was 4.1 µM.

For CCCN(CC(=O)Nc1scc(-c2ccccc2)c1C(=O)OCC)Cc1nnc(-c2ccco2)o1, the IC50 [1] was over 10 µM and the IC90 was over 10 µM.

COc1cnc(-c2ccccn2)nc1SCc1ccccc1 gave an IC50 [1] of 9.29 µM and an IC90 of over 10.7 µM.

In the case of CCOc1ccc(CN(C)c2ncnc3sc(C)c(C)c23)cc1OC, the IC50 (HEPG2TOX_HILL_SLOPE 1.19, HEPG2TOX_R_SQUARED 0.971, PBLUC_HILL_SLOPE 15.4, PBLUC_R_SQUARED 0.0404, read-out: LUCIFERASE INFECTION ASSAY - IC50) is reported as 3.16 µM and the IC90 is reported as 3.65 µM.

Compound CC(=O)NCCCc1ccc(C(=O)Cn2cc(C(F)(F)F)ccc2=O)cc1 has an IC50 [1] of over 10 µM and an IC90 of over 10 µM.

With COc1ccccc1/C=C(/CC(=O)NCc1ccc2c(c1)OCO2)c1nc2ccccc2s1 the IC50 [1] was over 10 µM and the IC90 was over 10 µM.

CC(C)Cc1ccc(C(=O)CC2OC(=O)c3ccccc32)cc1 (configuration not stated) was tested, and the IC50 (FFLUC_HILL_SLOPE 1.52, FFLUC_R_SQUARED 0.66, PBLUC_HILL_SLOPE 3.96, PBLUC_R_SQUARED 0.504, read-out: LUCIFERASE INFECTION ASSAY - IC50) was 8.38 µM and the IC90 was over 10.7 µM.

For CC1CC(C)CN(Cc2ccc(C(=O)Nc3ccccc3)cc2)C1 (configuration not stated), the IC50 (HEPG2TOX_HILL_SLOPE 11.8, HEPG2TOX_R_SQUARED 0.877, PBLUC_HILL_SLOPE 2.66, PBLUC_R_SQUARED 0.557, read-out: LUCIFERASE INFECTION ASSAY - IC50) was 3.28 µM and the IC90 was 7.47 µM.

For CC1CCCC(C)N1CC(O)COC1CCC(C(C)(C)C)CC1 (configuration not stated), the IC50 (HEPG2TOX_HILL_SLOPE 11.8, HEPG2TOX_R_SQUARED 0.0956, PBLUC_HILL_SLOPE 13.2, PBLUC_R_SQUARED 0.651, read-out: LUCIFERASE INFECTION ASSAY - IC50) was 3.06 µM and the IC90 was 3.62 µM.

Cc1cc(-c2cc(C(=O)NCc3ccc(Cn4cncn4)cc3)c3cnn(C(C)C)c3n2)c(C)s1 showed an IC50 [1] of over 10 µM and an IC90 of over 10 µM.

In the case of Cc1c(C)c(C)c(S(=O)(=O)N2CCN(C(C)C(=O)NC3CC3)CC2)c(C)c1C (configuration not stated), the IC50 (PBLUC_HILL_SLOPE 4.98, PBLUC_R_SQUARED 0.411, read-out: LUCIFERASE INFECTION ASSAY - IC50) is reported as 6.15 µM and the IC90 is reported as 9.56 µM.

For COc1ccc(-n2cnnc2SCC(=O)NC(=O)NC2CCCC2)cc1, the IC50 (FFLUC_HILL_SLOPE 14.6, FFLUC_R_SQUARED 0.0899, read-out: LUCIFERASE INFECTION ASSAY - IC50) was over 10 µM and the IC90 was over 10 µM.

In the case of O=C(Nc1nc(-c2ccc(Cl)cc2Cl)cs1)C1CCN(c2ccc(Cl)nn2)CC1, the IC50 [1] is reported as over 10 µM and the IC90 is reported as over 10 µM.

Cc1nn2c3ccccc3n(C)c2c1C(=O)N/N=C/c1ccc([N+](=O)[O-])o1 was tested, and the IC50 (PBLUC_HILL_SLOPE 2.48, PBLUC_R_SQUARED 0.513, read-out: LUCIFERASE INFECTION ASSAY - IC50) was 5.52 µM and the IC90 was over 10 µM.

In the case of CCc1ccccc1NCC(=O)Nc1cc(Cl)ccc1-n1cncn1, the IC50 [1] is reported as over 10 µM and the IC90 is reported as over 10 µM.

O=C(CSc1nnc(-c2ccco2)n1-c1ccc2c(c1)OCCO2)Nc1cc(Cl)cc(Cl)c1 was tested, and the IC50 [1] was over 6.56 µM and the IC90 was over 6.56 µM.

CSc1sc(Cl)c(-c2ccc(Cl)cc2)c1C#N was tested, and the IC50 [1] was over 11 µM and the IC90 was over 11 µM.

Work on Cc1cc(C)cc(NC(=O)C(NCC(C(C)C)N2CCOCC2)c2ccccc2)c1 (configuration not stated) yielded an IC50 (PBLUC_HILL_SLOPE 13.4, 2.47, PBLUC_R_SQUARED 0.208, 0.834, read-out: LUCIFERASE INFECTION ASSAY - IC50) of 6.61 µM and an IC90 of over 10 µM.
